Reference: patent US9598423B2 (BRISTOL-MYERS SQUIBB COMPANY, priority 2013, dated 2017)
Where two headings read alike, the source gives them in different places.

Columns and labels:
CK1ε = CK1ε (Homo sapiens (Human), UniProt P49674); assay: CK1ε kinase assay (Caliper LABCHIP electrophoretic separation of fluoresceinated peptide substrate and product); format: biochemical; conditions: read-out: CK1ε (IC50)
Procedure, shortened: (§1)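 IC50 values were obtained by non-linear regression from eleven-concentration titrations. The kinase reactions were incubated for 22 hours at room temperature before termination with 35 mM EDTA.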

CK1δ = CK1δ (Homo sapiens (Human), UniProt P48730); assay: CK1δ kinase assay (Caliper LABCHIP electrophoretic separation of fluoresceinated peptide substrate and product); format: biochemical; conditions: 200 pM CK1δ, 50 μM ATP, 1.5 μM peptide substrate, 22 hours at room temperature; read-out: CK1δ (IC50)
Procedure, shortened: as §1

[1] = 200 pM CK1ε, 50 μM ATP, 1.5 μM peptide substrate, 22 hours at room temperature

CK1ε, sequence (P49674 whole entry): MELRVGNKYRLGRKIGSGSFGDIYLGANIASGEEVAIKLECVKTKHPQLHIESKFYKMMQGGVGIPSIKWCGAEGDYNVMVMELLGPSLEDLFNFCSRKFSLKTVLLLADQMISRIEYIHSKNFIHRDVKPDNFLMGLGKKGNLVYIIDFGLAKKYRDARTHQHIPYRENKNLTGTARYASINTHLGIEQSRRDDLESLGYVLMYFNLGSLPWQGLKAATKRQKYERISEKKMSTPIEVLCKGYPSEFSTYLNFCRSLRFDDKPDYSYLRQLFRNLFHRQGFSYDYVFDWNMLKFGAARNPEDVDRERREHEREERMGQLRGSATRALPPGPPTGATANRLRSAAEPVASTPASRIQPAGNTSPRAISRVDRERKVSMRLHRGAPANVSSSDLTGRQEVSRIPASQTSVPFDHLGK
CK1δ, sequence (P48730 whole entry): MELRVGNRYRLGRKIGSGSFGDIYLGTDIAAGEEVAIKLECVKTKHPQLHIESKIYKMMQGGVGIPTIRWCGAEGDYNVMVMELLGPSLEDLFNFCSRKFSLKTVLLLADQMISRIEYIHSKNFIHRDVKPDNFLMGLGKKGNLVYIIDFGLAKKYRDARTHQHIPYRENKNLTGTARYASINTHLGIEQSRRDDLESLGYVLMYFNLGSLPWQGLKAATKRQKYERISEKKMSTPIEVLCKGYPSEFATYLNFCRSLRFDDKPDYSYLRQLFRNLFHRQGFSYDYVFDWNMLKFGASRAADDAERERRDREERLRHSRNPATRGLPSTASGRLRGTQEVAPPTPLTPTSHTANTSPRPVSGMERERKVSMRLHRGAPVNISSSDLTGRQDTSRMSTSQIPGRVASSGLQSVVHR

SMILES	IC50 (CK1δ)	IC50 (CK1ε; [1])	IC50 (CK1ε)
Cc1cc(F)cc(-c2nn3c(c2C(N)=O)CN(C(=O)Nc2ccc(C#N)c(C(F)(F)F)c2)CC3)c1 [Compound 229, N^5-(4-Cyano-3-(trifluoromethyl)phenyl)-2-(3-fluoro-5-methylphenyl)-6,7-dihydropyrazolo[1,5-a] pyrazine-3,5(4H)-dicarboxamide]	0.01 to 10 nM	–	0.01 to 10 nM
Cc1cc(F)cc(-c2nn3c(c2C(N)=O)CN(C(=O)Nc2ccc4c(c2)OC(F)(F)O4)CC3)c1 [Compound 227, N^5-(2,2-Difluorobenzo[d] [1,3]dioxol-5-yl)-2-(3-fluoro-5-methylphenyl)-6,7-dihydropyrazolo[1,5-a] pyrazine-3,5(4H)-dicarboxamide]	0.01 to 10 nM	0.01 to 10 nM	–
CC(C)(C)C(=O)N1CCC(NC(=O)N2CCn3nc(-c4cccc(F)c4)c(C(N)=O)c3C2)CC1 [Compound 98, 2-(3-Fluorophenyl)-N^5-(1-pivaloylpiperidin-4-yl)-6,7-dihydropyrazolo[1,5-a]pyrazine-3,5(4H)-dicarboxamide]	0.01 to 10 nM	0.01 to 10 nM	–
Cc1cc(-c2nn3c(c2C(N)=O)CN(C(=O)Nc2ccc4ncsc4c2)CC3)ccc1F [Compound 241, N^5-(Benzo[d]thiazol-6-yl)-2-(4-fluoro-3-methylphenyl)-6,7-dihydropyrazolo[1,5-a] pyrazine-3,5(4H)-dicarboxamide]	0.01 to 10 nM	0.01 to 10 nM	–
CC(C)(C)c1ccc(NC(=O)N2CCn3nc(-c4cccc(F)c4)c(C(N)=O)c3C2)cc1 [Compound 63, N^5-(4-(tert-Butyl)phenyl)-2-(3-fluorophenyl)-6,7-dihydropyrazolo[1,5-a]pyrazine-3,5(4H)-dicarboxamide]	0.01 to 10 nM	0.01 to 10 nM	–
NC(=O)c1c(-c2cccc(Cl)c2)nn2c1CN(C(=O)Nc1cc(Cl)cc(Cl)c1)CC2CO (stereo not drawn) [Compound A4, 2-(3-Chlorophenyl)-N^5-(3,5-dichlorophenyl)-7-(hydroxymethyl)-6,7-dihydropyrazolo[1,5-a]pyrazine-3,5(4H)-dicarboxamide]	0.01 to 10 nM	0.01 to 10 nM	–
CC(C)(C)NC(=O)N1CCn2nc(-c3cncc(Cl)c3)c(C(N)=O)c2C1 [Compound 148, N^5-(tert-Butyl)-2-(5-chloropyridin-3-yl)-6,7-dihydropyrazolo[1,5-a]pyrazine-3,5(4H)-dicarboxamide]	0.01 to 10 nM	0.01 to 10 nM	–
CC(C)(OC(=O)N1CCC(NC(=O)N2CCn3nc(-c4cccc(F)c4)c(C(N)=O)c3C2)CC1)C(F)(F)F [Compound 101, 1,1,1-Trifluoro-2-methylpropan-2-yl 4-(3-carbamoyl-2-(3-fluorophenyl)-4,5,6,7-tetrahydropyrazolo[1,5-a]pyrazine-5-carboxamido)piperidine-1-carboxylate]	0.01 to 10 nM	0.01 to 10 nM	–
NC(=O)c1c(-c2ccc(Cl)c(Cl)c2)nn2c1CN(C(=O)Nc1cc(F)cc(C(F)(F)F)c1)CC2 [Compound 212, 2-(3,4-Dichlorophenyl)-N^5-(3-fluoro-5-(trifluoromethyl)phenyl)-6,7-dihydropyrazolo [1,5-a]pyrazine-3,5(4H)-dicarboxamide]	0.01 to 10 nM	0.01 to 10 nM	–
NC(=O)c1c(-c2cccc(F)c2)nn2c1CN(C(=O)NC13CC4CC(CC(C4)C1)C3)CC2 [Compound 22, N^5-(Adamantan-1-yl)-2-(3-fluorophenyl)-6,7-dihydropyrazolo[1,5-a]pyrazine-3,5(4H)-dicarboxamide]	0.01 to 10 nM	0.01 to 10 nM	–
CCOc1cc(Cl)cc(-c2nn3c(c2C(N)=O)CN(C(=O)Nc2ccc(C#N)c(Cl)c2)CC3)c1 [Compound A61, N^5-(3-Chloro-4-cyanophenyl)-2-(3-chloro-5-ethoxyphenyl)-6,7-dihydropyrazolo[1,5-a]pyrazine-3,5(4H)-dicarboxamide]	0.01 to 10 nM	0.01 to 10 nM	–
N#Cc1ccc(NC(=O)N2Cc3c(C(N)=O)c(-c4ccc(F)c(Cl)c4)nn3[C@H](C(F)F)C2)cc1F [Compound A22, (S)-2-(3-Chloro-4-fluorophenyl)-N^5-(4-cyano-3-fluorophenyl)-7-(difluoromethyl)-6,7-dihydropyrazolo[1,5-a]pyrazine-3,5(4H)-dicarboxamide]	0.01 to 10 nM	0.01 to 10 nM	–
NC(=O)c1c(-c2cccc(F)c2)nn2c1CN(C(=O)Nc1cc(C(F)(F)F)cc(C(F)(F)F)c1)CC2 [Compound 53, N^5-(3,5-Bis(trifluoromethyl)phenyl)-2-(3-fluorophenyl)-6,7-dihydropyrazolo[1,5-a]pyrazine-3,5(4H)-dicarboxamide]	0.01 to 10 nM	0.01 to 10 nM	–
Cc1ccc(-c2nn3c(c2C(N)=O)CN(C(=O)Nc2ccc(C#N)c(C(F)(F)F)c2)CC3)cc1Cl [Compound 253, 2-(3-Chloro-4-methylphenyl)-N^5-(4-cyano-3-(trifluoro-methyl)phenyl)-6,7-dihydropyrazolo [1,5-a]pyrazine-3,5(4H)-dicarboxamide]	0.01 to 10 nM	–	0.01 to 10 nM
Cc1nc2cc(-c3nn4c(c3C(N)=O)CN(C(=O)Nc3ccc(C#N)c(F)c3)CC4)cc(Cl)c2o1 [Compound 314, 2-(7-Chloro-2-methylbenzo[d]oxazol-5-yl)-N^5-(4-cyano-3-fluorophenyl)-6,7-dihydropyrazolo[1,5-a]pyrazine-3,5(4H)-dicarboxamide]	0.01 to 10 nM	0.01 to 10 nM	–
Cc1cc(NC(=O)N2CCn3nc(-c4cc(F)c5cn[nH]c5c4)c(C(N)=O)c3C2)ccc1C#N [Compound 325, N^5-(4-Cyano-3-methylphenyl)-2-(4-fluoro-1H-indazol-6-yl)-6,7-dihydropyrazolo[1,5-a]pyrazine-3,5(4H)-dicarboxamide]	0.01 to 10 nM	0.01 to 10 nM	–
NC(=O)c1c(-c2cccc(F)c2)nn2c1CN(C(=O)Nc1ccc(C(F)(F)F)cc1)CC2 [Compound 21, 2-(3-Fluorophenyl)-N^5-(4-(trifluoromethyl)phenyl)-6,7-dihydropyrazolo[1,5-a]pyrazine-3,5(4H)-dicarboxamide]	0.01 to 10 nM	0.01 to 10 nM	–
NC(=O)c1c(-c2cccc(F)c2)nn2c1CN(C(=O)NC1CCCC1)CC2 [Compound 9, N^5-Cyclopentyl-2-(3-fluorophenyl)-6,7-dihydropyrazolo[1,5-a]pyrazine-3,5(4H)-dicarboxamide]	0.01 to 10 nM	0.01 to 10 nM	–
COc1cccc(-c2nn3c(c2C(N)=O)CN(C(=O)NC(C)(C)C)CC3)c1 [Compound 109, N^5-(tert-Butyl)-2-(3-methoxyphenyl)-6,7-dihydropyrazolo[1,5-a]pyrazine-3,5(4H)-dicarboxamide]	0.01 to 10 nM	0.01 to 10 nM	–

Further lines, with some results ahead:

IC50 (CK1δ)	IC50 (CK1ε; [1])	SMILES	IC50 (CK1ε)
0.01 to 10 nM	0.01 to 10 nM	N#Cc1cccc(NC(=O)N2CCn3nc(-c4cccc(Cl)c4)c(C(N)=O)c3C2)c1 [Compound 161, 2-(3-Chlorophenyl)-N^5-(3-cyanophenyl)-6,7-dihydropyrazolo[1,5-a] pyrazine-3,5(4H)-dicarboxamide]	–
0.01 to 10 nM	0.01 to 10 nM	N#Cc1ccc(NC(=O)N2CCn3nc(-c4cc(Cl)ccc4Cl)c(C(N)=O)c3C2)cc1 [Compound 272, N^5-(4-Cyanophenyl)-2-(2,5-dichlorophenyl)-6,7-dihydropyrazolo[1,5-a] pyrazine-3,5(4H)-dicarboxamide]	–
0.01 to 10 nM	0.01 to 10 nM	N#Cc1ccc(NC(=O)N2CCn3nc(-c4ccc(F)c(Cl)c4)c(C(N)=O)c3C2)cc1 [Compound 172]	–
10 to 100 nM	10 to 100 nM	Cn1cc2c(F)cc(-c3nn4c(c3C(N)=O)CN(C(=O)Nc3ccc(C#N)cc3)CC4)cc2n1 [Compound 328]	–
0.01 to 10 nM	0.01 to 10 nM	Cc1ccc(-c2nn3c(c2C(N)=O)CN(C(=O)Nc2ccc(C#N)c(C)c2)CC3)cc1Cl [Compound 249, 2-(3-Chloro-4-methylphenyl)-N^5-(4-cyano-3-methylphenyl)-6,7-dihydropyrazolo[1,5-a]pyrazine-3,5(4H)-dicarboxamide]	–
0.01 to 10 nM	0.01 to 10 nM	N#Cc1ccc(NC(=O)N2CCn3nc(-c4cncc(Cl)c4)c(C(N)=O)c3C2)cc1 [Compound 270, 2-(5-Chloropyridin-3-yl)-N^5-(4-cyanophenyl)-6,7-dihydropyrazolo[1,5-a]pyrazine-3,5(4H)-dicarboxamide]	–
0.01 to 10 nM	0.01 to 10 nM	CSc1cccc(-c2nn3c(c2C(N)=O)CN(C(=O)Nc2ccc(C#N)cc2)CC3)c1 [Compound 281, N^5-(4-Cyanophenyl)-2-(3-(methylthio)phenyl)-6,7-dihydropyrazolo[1,5-a] pyrazine-3,5(4H)-dicarboxamide]	–
0.01 to 10 nM	0.01 to 10 nM	N#Cc1ccc(NC(=O)N2Cc3c(C(N)=O)c(-c4cccc(F)c4)nn3C3(CC3)C2)cc1 [Compound A87, N^5′-(4-Cyanophenyl)-2′-(3-fluorophenyl)-4′H-spiro[cyclopropane-1,7′-pyrazolo[1,5-a]pyrazine]-3′,5′(6′H)-dicarboxamide]	–
0.01 to 10 nM	0.01 to 10 nM	NC(=O)c1c(-c2ccc(F)c(Cl)c2)nn2c1CN(C(=O)Nc1ccc(F)c(F)c1)CC2 [Compound 183, 2-(3-Chloro-4-fluorophenyl)-N^5-(3,4-difluorophenyl)-6,7-dihydropyrazolo[1,5-a] pyrazine-3,5(4H)-dicarboxamide]	–
0.01 to 10 nM	0.01 to 10 nM	N#Cc1ccc(NC(=O)N2CCn3nc(-c4ccc(F)c(Cl)c4)c(C(N)=O)c3C2)nc1 [Compound 193, 2-(3-Chloro-4-fluorophenyl)-N^5-(5-cyanopyridin-2-yl)-6,7-dihydropyrazolo[1,5-a] pyrazine-3,5(4H)-dicarboxamide]	–
0.01 to 10 nM	0.01 to 10 nM	CN(C)c1cccc(-c2nn3c(c2C(N)=O)CN(C(=O)Nc2ccc(C#N)cc2)CC3)c1 [Compound 279, N^5-(4-Cyanophenyl)-2-(3-(dimethylamino)phenyl)-6,7-dihydropyrazolo[1,5-a] pyrazine-3,5(4H)-dicarboxamide]	–
